Test results: DBAASP
In brackets after ≈: the same amount, converted by molar mass. Each block holds one compound with its values, some of them ahead of it.

Experiments:
Assay in all cases: ≥ marks a high value that may be exact or a test limit, other limits are often not marked, values filed in µg/mL are converted to µM
[1] = test system: Enterococcus faecalis MTCC 439
[2] = test system: Acinetobacter baumannii MTCC 9829
[3] = test system: Stenotrophomonas maltophilia MTCC 1890
[4] = test system: Shigella boydii MTCC 11947
[5] = test system: Staphylococcus aureus MTCC 3160
[6] = test system: Pluralibacter gergoviae MTCC 3826
[7] = test system: Klebsiella oxytoca MTCC 2275
[8] = test system: Shigella flexneri MTCC 1457
[9] = test system: Citrobacter freundii MTCC 1658
[10] = test system: Pseudomonas aeruginosa MTCC 3542
[11] = test system: Citrobacter koseri MTCC 1657
[12] = test system: Salmonella enterica MTCC 9844
[13] = test system: Klebsiella pneumoniae MTCC 7407
[14] = test system: Alcaligenes faecalis MTCC 1937
[15] = test system: Proteus vulgaris MTCC 1771
[16] = test system: Proteus mirabilis MTCC 3158
[17] = test system: Staphylococcus haemolyticus MTCC 3383
[18] = test system: Salmonella enterica subsp. enterica serovar Typhimurium ATCC 14028
[19] = test system: Bordetella bronchiseptica MTCC 6837
[20] = test system: Alkalihalobacillus alcalophilus MTCC 860
[21] = test system: Haemophilus influenzae MTCC 621
[22] = test system: Klebsiella aerogenes MTCC 111
[23] = test system: Corynebacterium glutamicum MTCC 2679
[24] = test system: Escherichia coli K12 MG1655
[25] = test system: Vibrio cholerae MTCC 3904
[26] = test system: Salmonella enterica ATCC H9812
[27] = test system: Bacillus licheniformis ATCC 14580
[28] = test system: Proteus mirabilis ATCC 35659
[29] = test system: Bacillus cereus ATCC 14579
[30] = test system: Bacillus amyloliquefaciens ATCC 23842
[31] = test system: Escherichia coli ATCC 25922
Enterococcus faecalis A4 = test system: Enterococcus faecalis A4
[32] = test system: Enterococcus faecium 5F-10
[33] = test system: Enterococcus faecalis 1F-1
[34] = test system: Bacillus subtilis ATCC 6051
[35] = test system: Staphylococcus aureus ATCC 29213
[36] = test system: Pseudomonas aeruginosa PAO1
Staphylococcus aureus MR = test system: Staphylococcus aureus MR
[37] = test system: Enterococcus faecium 4W-9
[38] = test system: Staphylococcus aureus 215
Bacillus subtilis 168 HT = test system: Bacillus subtilis 168 HT
Escherichia coli MG1655 = test system: Escherichia coli MG1655
[39] = test system: Pseudomonas aeruginosa ATCC 10419
Escherichia coli ER2566 = test system: Escherichia coli ER2566
[40] = test system: Salmonella enterica subsp. enterica serovar Typhimurium C77-31
[41] = test system: Pseudomonas aeruginosa ATCC 21630
[42] = test system: Bacillus subtilis ATCC 11060
[43] = test system: Salmonella enterica subsp. enterica serovar Pullorum C79-13
Escherichia coli K88 = test system: Escherichia coli K88
Escherichia coli UB1005 = test system: Escherichia coli UB1005
[44] = test system: Staphylococcus aureus ATCC 25923
[45] = test system: Escherichia coli CMCC 44102
[46] = test system: Enterococcus faecalis ATCC 29212
[47] = test system: Staphylococcus epidermidis ATCC 12228
[48] = test system: Pseudomonas aeruginosa ATCC 21625
Escherichia coli 078 = test system: Escherichia coli 078
[49] = test system: Pseudomonas aeruginosa ATCC 27853
[50] = test system: Escherichia coli CVCC 1515

Structure (SMILES): CC[C@H](C)[C@H](NC(=O)[C@H](C)NC(=O)[C@H](CCCCN)NC(=O)[C@@H](N)CCC(=O)O)C(=O)N[C@@H](CC(C)C)C(=O)N[C@@H](CO)C(=O)N[C@@H](C)C(=O)N[C@@H](CC(C)C)C(=O)N[C@@H](CCCCN)C(=O)N[C@@H](CC(C)C)C(=O)N[C@@H](CC(C)C)C(=O)N[C@@H](CCCN=C(N)N)C(=O)N[C@@H](CC(C)C)C(=O)N[C@@H](C)C(=O)N[C@@H](CC(C)C)C(=O)O [EKAILSALKLLRLAL]
MIC [1]: ≥ 77.5 µM
MIC [2]: ≥ 77.5 µM
MIC [3]: ≥ 77.5 µM
MIC [4]: ≥ 77.5 µM
MIC [5]: ≥ 77.5 µM
MIC [6]: ≥ 77.5 µM
MIC [7]: ≥ 77.5 µM
MIC [8]: ≥ 77.5 µM
MIC [9]: ≥ 77.5 µM
MIC [10]: ≥ 77.5 µM
MIC [11]: ≥ 77.5 µM
MIC [12]: ≥ 77.5 µM
MIC [13]: ≥ 77.5 µM
MIC [14]: ≥ 77.5 µM
MIC [15]: ≥ 77.5 µM
MIC [16]: ≥ 77.5 µM
MIC [17]: ≥ 77.5 µM
MIC [18]: > 77.5 µM
MIC [19]: ≥ 38.7 µM
MIC [20]: ≥ 38.7 µM
MIC [21]: 9.68 µM (≈ 16 µg/mL)
MIC [22]: ≥ 77.5 µM
MIC [23]: 19.4 µM (≈ 32 µg/mL)
MIC [24]: ≥ 77.5 µM
MIC [25]: ≥ 77.5 µM

MIC [26]: ≥ 159 µM
MIC [27]: ≥ 159 µM
MIC [28]: ≥ 79.7 µM
MIC [29]: ≥ 159 µM
MIC [30]: ≥ 159 µM
MIC [31]: 79.7 µM (≈ 64 µg/mL)
MIC (Enterococcus faecalis A4): ≥ 159 µM
MIC [32]: ≥ 159 µM
MIC [33]: ≥ 159 µM
MIC [34]: ≥ 159 µM
MIC [35]: 79.7 µM (≈ 64 µg/mL)
MIC [36]: > 159 µM
MIC (Staphylococcus aureus MR): ≥ 79.7 µM
MIC [37]: ≥ 159 µM
MIC [38]: ≥ 79.7 µM
Structure (SMILES): CC(C)C[C@H](NC(=O)[C@H](CC(C)C)NC(=O)[C@@H](N)CCC(=O)O)C(=O)N[C@@H](CO)C(=O)N[C@@H](CCCCN)C(=O)N[C@H](C(=O)N[C@@H](CC(=O)O)C(=O)O)C(C)C [ELLSKVD]

MIC (Bacillus subtilis 168 HT): ≥ 97 µM
MIC (Escherichia coli MG1655): ≥ 97 µM
Structure (SMILES): CC[C@H](C)[C@H](NC(=O)[C@H](CCCCN)NC(=O)[C@H](Cc1ccccc1)NC(=O)[C@H](CCCN=C(N)N)NC(=O)[C@H](CCCCN)NC(=O)[C@@H](NC(=O)[C@@H](NC(=O)[C@H](Cc1ccccc1)NC(=O)CN)[C@@H](C)CC)C(C)C)C(=O)N[C@@H](CC(C)C)C(=O)N[C@H](C(=O)O)C(C)C [GFIVKRFKILV]

MIC [39]: 2 µM (≈ 6.7 µg/mL)
MIC (Escherichia coli ER2566): 0.987 µM (≈ 3.3 µg/mL)
MIC [40]: 2 µM (≈ 6.7 µg/mL)
MIC [41]: 4.01 µM (≈ 13.4 µg/mL)
MIC [42]: 0.987 µM (≈ 3.3 µg/mL)
MIC [43]: 4.01 µM (≈ 13.4 µg/mL)
MIC (Escherichia coli K88): 0.509 µM (≈ 1.7 µg/mL)
MIC (Escherichia coli UB1005): 0.987 µM (≈ 3.3 µg/mL)
MIC [44]: 7.99 µM (≈ 26.7 µg/mL)
MIC [45]: 2 µM (≈ 6.7 µg/mL)
MIC [46]: 0.987 µM (≈ 3.3 µg/mL)
MIC [35]: 2 µM (≈ 6.7 µg/mL)
MIC [18]: 4.01 µM (≈ 13.4 µg/mL)
MIC [47]: 4.01 µM (≈ 13.4 µg/mL)
MIC [48]: 2 µM (≈ 6.7 µg/mL)
MIC (Escherichia coli 078): 4.01 µM (≈ 13.4 µg/mL)
MIC [49]: 4.01 µM (≈ 13.4 µg/mL)
MIC [50]: 0.509 µM (≈ 1.7 µg/mL)
Structure (SMILES): CC[C@H](C)[C@H](NC(=O)[C@H](CCCCN)NC(=O)[C@H](CCCCN)NC(=O)[C@H](CC(C)C)NC(=O)[C@H](CCCN=C(N)N)NC(=O)[C@H](Cc1c[nH]c2ccccc12)NC(=O)[C@H](CCCN=C(N)N)NC(=O)[C@@H](NC(=O)[C@H](CCCCN)NC(=O)[C@H](Cc1c[nH]c2ccccc12)NC(=O)[C@H](CCCN=C(N)N)NC(=O)[C@H](CC(C)C)NC(=O)[C@H](CCCN=C(N)N)NC(=O)[C@H](CCCN=C(N)N)NC(=O)[C@H](Cc1ccccc1)NC(=O)[C@@H](N)CCCN=C(N)N)[C@@H](C)O)C(=O)N[C@@H](Cc1c[nH]c2ccccc12)C(=O)N[C@@H](Cc1c[nH]c2ccccc12)C(=O)N1CCC[C@H]1C(=O)N[C@@H](Cc1ccccc1)C(=O)N[C@@H](CC(C)C)C(=O)N[C@@H](CCCN=C(N)N)C(=O)N[C@@H](CCCN=C(N)N)C(N)=O [RFRRLRWKTRWRLKKIWWPFLRR]
